In PMC9405070, “Metabolic and Structural Insights into Hydrogen Sulfide Mis-Regulation in Enterococcus faecalis” (Antioxidants, 2022):

Experiments:
[1] = target: T1, Ef Pta / EfPta (phosphotransacetylase) (Enterococcus faecalis, UniProt A0ACD6TAM5); experiment: acetyl-CoA yield by LC-MS after […] s; type: biochemical; settings: 150 uM CoASSH as in situ mixture with equimolar CoASH, excess Na2S and CoA disulfide; 5 mM acetylphosphate, pH 8.0, room temperature, anaerobic
T1 construct: Ni-NTA and Superdex G200; C182 in CoA pocket, R319, S318, D325 in active site

[2] = target: T1, Ef Pta / EfPta (phosphotransacetylase); experiment: thioester formation at […] nm; type: biochemical; settings: 5 mM acetylphosphate; 25 mM Tris-HCl, 40 mM KCl, pH 8.0, room temperature, anaerobic; 10 uM to 5 mM CoA
[3] = target: Enterococcus faecalis coenzyme A persulfide (CoASSH) reductase (Enterococcus faecalis strain OG1RF); experiment: crystal structure; EfCoAPR as isolated from E. coli, with FAD and CoA (PAP moiety seen); crystals in 20% PEG 3350, 0.1 M Bis-Tris propane pH 6.50, 0.2 M sodium iodide; two molecules in the asymmetric unit; 2.05 Å
purified protein = substrate: CC(=O)SCCNC(=O)CCNC(=O)[C@H](O)C(C)(C)COP(=O)(O)OP(=O)(O)OC[C@H]1O[C@@H](n2cnc3c(N)ncnc32)[C@H](O)[C@@H]1OP(=O)(O)O; experiment: purified protein; type: biochemical, Enterococcus faecalis; settings: 5 mM KH2PO4, 25 mM Tris-HCl, 40 mM KCl, pH 8.0, room temperature, anaerobic, 10 uM to 5 mM acetyl-CoA

## CC(C)(COP(=O)(O)OP(=O)(O)OC[C@H]1O[C@@H](n2cnc3c(N)ncnc32)[C@H](O)[C@@H]1OP(=O)(O)O)[C@@H](O)C(=O)NCCC(=O)NCCSS [CoASSH]
[1]
  inhibition of acetyl-CoA formation: This inhibition of activity was due to CoASSH specifically

## CoA
[2]
  Km: 69 µM

## Enterococcus faecalis coenzyme A persulfide (CoASSH) reductase
[3]
  stoichiometry N: 2

B1: Ef Pta / EfPta (phosphotransacetylase) (Enterococcus faecalis OG1RF) (protein)
chain: MYDGFCKYKTGGFIVELFDSLKFKVVRRNIKIVFPEATDPRILGAAARLKSDELVEPILIGDPTDIANAAMARGINTSNFIIINPNDYEKWDEMVEAFVERRNGKATKEDAEKILKDVNYFGTMLTYMGIADGMVSGAIHSTGDTVRPALQIIKTKPGVSRTSGAFLMIRGRDQERYLFSDCAINVNPTAQELAEIAVDSAKTAELFDIEPKVSLLSFSTKGSAKAPEVTKVAEATKIAQELAPEYAIDGELQFDASYVSSVAQLKAPNSKVAGEATVFVFPDLQSGNIGYKIAQRLGNFEAIGPILQGLNKPVSDLSRGANEEDVYKLSIITAAQTLMND
notes: Ni-NTA and Superdex G200; C182 in CoA pocket, R319, S318, D325 in active site
Purified protein
  Km: 57 (±16) μM
